Source: ChEMBL document CHEMBL4507258 (2021)

Key:
[1] = biological target: Ephrin type-B receptor 3 (Homo sapiens) (UniProt P54753); conditions: Compound concentration 1000.0 nM
[2] = biological target: Serine/threonine-protein kinase DCLK2 (Homo sapiens) (UniProt Q8N568); conditions: Compound concentration 1000.0 nM
[3] = biological target: Serine/threonine-protein kinase Nek11 (Homo sapiens) (UniProt Q8NG66); conditions: Compound concentration 1000.0 nM
[4] = biological target: Cyclin-dependent kinase-like 1 (Homo sapiens) (UniProt Q00532); conditions: Compound concentration 1000.0 nM
[5] = biological target: Calcium/calmodulin-dependent protein kinase type 1D (Homo sapiens) (UniProt Q8IU85); conditions: Compound concentration 1000.0 nM
[6] = biological target: Kappa-type opioid receptor (Homo sapiens, UniProt P41145); conditions: Compound concentration 10.0 uM
[7] = biological target: Receptor tyrosine-protein kinase erbB-4 (Homo sapiens) (UniProt Q15303); conditions: Compound concentration 1000.0 nM
[8] = biological target: Receptor-interacting serine/threonine-protein kinase 4 (Homo sapiens) (UniProt P57078); conditions: Compound concentration 1000.0 nM
Chain of Receptor-interacting serine/threonine-protein kinase 4 (Homo sapiens) (P57078 whole entry): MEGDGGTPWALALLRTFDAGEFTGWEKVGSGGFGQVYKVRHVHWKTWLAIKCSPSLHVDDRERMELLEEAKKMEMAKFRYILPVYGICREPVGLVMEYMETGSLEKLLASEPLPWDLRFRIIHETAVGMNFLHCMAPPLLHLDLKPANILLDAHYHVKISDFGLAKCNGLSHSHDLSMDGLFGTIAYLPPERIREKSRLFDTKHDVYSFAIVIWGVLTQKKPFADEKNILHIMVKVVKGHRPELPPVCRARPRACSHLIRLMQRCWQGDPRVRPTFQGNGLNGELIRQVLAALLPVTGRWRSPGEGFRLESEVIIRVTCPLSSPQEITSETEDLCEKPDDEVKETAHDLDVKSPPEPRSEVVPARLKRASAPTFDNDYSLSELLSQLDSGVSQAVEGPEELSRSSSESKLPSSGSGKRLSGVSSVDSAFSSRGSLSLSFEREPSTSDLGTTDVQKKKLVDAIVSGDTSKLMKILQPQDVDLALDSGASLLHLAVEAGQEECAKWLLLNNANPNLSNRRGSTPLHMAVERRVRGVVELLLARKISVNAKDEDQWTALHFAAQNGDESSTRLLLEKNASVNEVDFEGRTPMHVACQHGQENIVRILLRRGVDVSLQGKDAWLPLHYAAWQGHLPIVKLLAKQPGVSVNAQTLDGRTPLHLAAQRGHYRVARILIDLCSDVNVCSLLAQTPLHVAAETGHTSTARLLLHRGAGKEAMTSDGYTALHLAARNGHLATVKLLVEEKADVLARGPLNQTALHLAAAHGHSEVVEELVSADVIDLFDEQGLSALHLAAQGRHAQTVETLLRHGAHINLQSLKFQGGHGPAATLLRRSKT

[9] = system: Mast/stem cell growth factor receptor Kit (Homo sapiens), P10721 [L576P]; conditions: Compound concentration 1000.0 nM
[10] = biological target: Serine/threonine-protein kinase 32A (Homo sapiens) (UniProt Q8WU08); conditions: Compound concentration 1000.0 nM
[11] = biological target: Fibroblast growth factor receptor 2 (Homo sapiens) (UniProt P21802); conditions: Compound concentration 1000.0 nM
[12] = biological target: Tyrosine-protein kinase receptor UFO (Homo sapiens) (UniProt P30530); conditions: Compound concentration 1000.0 nM
[13] = biological target: Serine/threonine-protein kinase Nek10 (Homo sapiens) (UniProt Q6ZWH5); conditions: Compound concentration 1000.0 nM
[14] = biological target: Serine/threonine-protein kinase 32C (Homo sapiens) (UniProt Q86UX6); conditions: Compound concentration 1000.0 nM
[15] = biological target: Casein kinase II subunit alpha (Homo sapiens) (UniProt P68400); conditions: Compound concentration 1000.0 nM
[16] = biological target: Wee1-like protein kinase (Homo sapiens) (UniProt P30291); conditions: Compound concentration 1000.0 nM
[17] = biological target: D(1B) dopamine receptor (Homo sapiens) (UniProt P21918); conditions: Compound concentration 10.0 uM
[18] = system: Mast/stem cell growth factor receptor Kit (Homo sapiens), P10721 [D816H]; conditions: Compound concentration 1000.0 nM
[19] = biological target: Dual specificity protein kinase TTK (Homo sapiens) (UniProt P33981); conditions: Compound concentration 1000.0 nM
[20] = biological target: Peripheral plasma membrane protein CASK (Homo sapiens) (UniProt O14936); conditions: Compound concentration 1000.0 nM
[21] = biological target: Mitogen-activated protein kinase kinase kinase 7 (Homo sapiens) (UniProt O43318); conditions: Compound concentration 1000.0 nM
[22] = system: eIF-2-alpha kinase GCN2 (Homo sapiens), Q9P2K8 [S808G]; conditions: Compound concentration 1000.0 nM
[23] = biological target: Ephrin type-B receptor 1 (Homo sapiens) (UniProt P54762); conditions: Compound concentration 1000.0 nM
[24] = biological target: Fibroblast growth factor receptor 3 (Homo sapiens) (UniProt P22607); conditions: Compound concentration 1000.0 nM
[25] = biological target: Cytoplasmic tyrosine-protein kinase BMX (Homo sapiens) (UniProt P51813); conditions: Compound concentration 1000.0 nM
[26] = biological target: 5-hydroxytryptamine receptor 2B (Homo sapiens, UniProt P41595); conditions: Compound concentration 10.0 uM
Chain of 5-hydroxytryptamine receptor 2B (P41595 whole entry): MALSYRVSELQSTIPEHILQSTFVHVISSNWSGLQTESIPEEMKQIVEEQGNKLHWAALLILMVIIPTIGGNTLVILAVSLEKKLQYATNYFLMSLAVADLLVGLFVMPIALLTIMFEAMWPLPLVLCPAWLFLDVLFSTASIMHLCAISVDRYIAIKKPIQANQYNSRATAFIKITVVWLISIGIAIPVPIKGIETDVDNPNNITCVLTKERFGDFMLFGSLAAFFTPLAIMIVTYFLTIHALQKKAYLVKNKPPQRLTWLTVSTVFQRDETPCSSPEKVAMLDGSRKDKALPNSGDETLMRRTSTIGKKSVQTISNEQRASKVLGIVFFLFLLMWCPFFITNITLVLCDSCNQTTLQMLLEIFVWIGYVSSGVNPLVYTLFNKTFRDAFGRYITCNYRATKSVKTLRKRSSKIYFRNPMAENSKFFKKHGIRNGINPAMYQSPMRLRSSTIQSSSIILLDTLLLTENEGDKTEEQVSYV

[27] = biological target: Serine/threonine-protein kinase PAK 1 (Homo sapiens) (UniProt Q13153); conditions: Compound concentration 1000.0 nM
Chain of Serine/threonine-protein kinase PAK 1 (Homo sapiens) (Q13153 whole entry): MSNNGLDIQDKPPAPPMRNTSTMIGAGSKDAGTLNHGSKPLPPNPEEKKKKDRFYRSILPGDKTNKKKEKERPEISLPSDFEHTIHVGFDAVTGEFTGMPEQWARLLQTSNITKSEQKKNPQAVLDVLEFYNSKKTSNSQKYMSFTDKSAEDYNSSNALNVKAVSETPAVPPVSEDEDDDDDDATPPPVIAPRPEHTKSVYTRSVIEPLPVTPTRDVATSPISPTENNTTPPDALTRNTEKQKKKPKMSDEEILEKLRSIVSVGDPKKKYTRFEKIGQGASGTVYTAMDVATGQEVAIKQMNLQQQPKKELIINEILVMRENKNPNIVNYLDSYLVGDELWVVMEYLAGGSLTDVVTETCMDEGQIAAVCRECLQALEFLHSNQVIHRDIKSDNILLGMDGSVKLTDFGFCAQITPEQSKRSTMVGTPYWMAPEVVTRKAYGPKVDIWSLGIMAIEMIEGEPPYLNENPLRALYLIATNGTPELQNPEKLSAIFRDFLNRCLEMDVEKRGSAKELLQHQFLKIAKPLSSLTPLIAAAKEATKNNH

[28] = biological target: Uncharacterized serine/threonine-protein kinase SBK3 (Homo sapiens) (UniProt P0C264); conditions: Compound concentration 1000.0 nM
[29] = system: Receptor-type tyrosine-protein kinase FLT3 (Homo sapiens), P36888 [D835Y]; conditions: Compound concentration 1000.0 nM
[30] = biological target: Proto-oncogene tyrosine-protein kinase Src (Homo sapiens) (UniProt P12931); conditions: Compound concentration 1000.0 nM
Chain of Proto-oncogene tyrosine-protein kinase Src (Homo sapiens) (P12931 2-536 limits assumed): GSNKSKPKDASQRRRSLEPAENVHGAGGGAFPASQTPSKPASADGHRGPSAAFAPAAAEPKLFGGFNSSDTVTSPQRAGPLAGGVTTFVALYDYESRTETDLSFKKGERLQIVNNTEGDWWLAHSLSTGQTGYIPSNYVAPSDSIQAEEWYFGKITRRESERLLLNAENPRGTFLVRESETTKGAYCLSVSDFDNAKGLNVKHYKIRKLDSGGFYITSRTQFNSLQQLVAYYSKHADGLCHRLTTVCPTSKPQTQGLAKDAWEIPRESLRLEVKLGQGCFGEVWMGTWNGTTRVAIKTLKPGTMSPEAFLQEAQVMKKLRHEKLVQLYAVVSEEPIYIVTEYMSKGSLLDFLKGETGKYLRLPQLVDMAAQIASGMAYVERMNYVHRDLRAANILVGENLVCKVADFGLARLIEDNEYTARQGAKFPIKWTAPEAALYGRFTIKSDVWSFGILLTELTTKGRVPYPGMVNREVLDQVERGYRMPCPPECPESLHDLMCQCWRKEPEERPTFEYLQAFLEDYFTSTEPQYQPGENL

[31] = biological target: Calcium/calmodulin-dependent protein kinase type II subunit alpha (Homo sapiens) (UniProt Q9UQM7); conditions: Compound concentration 1000.0 nM
[32] = system: Epidermal growth factor receptor (Homo sapiens), P00533 [UNDEFINED MUTATION]; conditions: Compound concentration 1000.0 nM
[33] = biological target: Calcium/calmodulin-dependent protein kinase kinase 2 (Homo sapiens) (UniProt Q96RR4); conditions: Compound concentration 1000.0 nM
[34] = system: Hepatocyte growth factor receptor (Homo sapiens), P08581 [Y1235D]; conditions: Compound concentration 1000.0 nM
[35] = biological target: Serine/threonine-protein kinase RIO1 (Homo sapiens) (UniProt Q9BRS2); conditions: Compound concentration 1000.0 nM
[36] = biological target: Phosphatidylinositol 3-kinase C2 domain-containing subunit gamma (Homo sapiens) (UniProt O75747); conditions: Compound concentration 1000.0 nM
[37] = system: Tyrosine-protein kinase ABL1 (Homo sapiens), P00519 [H396P]; conditions: Compound concentration 1000.0 nM
[38] = system: Receptor-type tyrosine-protein kinase FLT3 (Homo sapiens), P36888 [R834Q]; conditions: Compound concentration 1000.0 nM
[39] = biological target: Phosphatidylinositol 4,5-bisphosphate 3-kinase catalytic subunit gamma isoform (Homo sapiens) (UniProt P48736); conditions: Compound concentration 1000.0 nM
[40] = biological target: 5-hydroxytryptamine receptor 1E (Homo sapiens) (UniProt P28566); conditions: Compound concentration 10.0 uM
[41] = biological target: Atypical kinase COQ8B, mitochondrial (Homo sapiens) (UniProt Q96D53); conditions: Compound concentration 1000.0 nM
Chain of Atypical kinase COQ8B, mitochondrial (Homo sapiens) (Q96D53 whole entry): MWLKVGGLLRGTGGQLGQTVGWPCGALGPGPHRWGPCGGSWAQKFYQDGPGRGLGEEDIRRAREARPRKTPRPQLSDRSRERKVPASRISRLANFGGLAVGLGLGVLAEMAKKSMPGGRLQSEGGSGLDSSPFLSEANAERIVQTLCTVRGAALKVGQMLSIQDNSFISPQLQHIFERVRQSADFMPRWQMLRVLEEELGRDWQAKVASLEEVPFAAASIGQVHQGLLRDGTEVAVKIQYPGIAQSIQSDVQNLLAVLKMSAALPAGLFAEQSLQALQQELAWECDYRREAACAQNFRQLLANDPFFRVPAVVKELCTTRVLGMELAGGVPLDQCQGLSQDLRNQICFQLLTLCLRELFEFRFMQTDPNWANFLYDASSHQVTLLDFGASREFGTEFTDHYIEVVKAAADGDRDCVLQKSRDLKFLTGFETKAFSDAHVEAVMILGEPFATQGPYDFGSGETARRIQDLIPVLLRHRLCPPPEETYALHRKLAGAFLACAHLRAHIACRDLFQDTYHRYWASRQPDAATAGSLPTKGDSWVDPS

[42] = biological target: Ribosomal protein S6 kinase alpha-5 (Homo sapiens) (UniProt O75582); conditions: Compound concentration 1000.0 nM
Chain of Ribosomal protein S6 kinase alpha-5 (Homo sapiens) (O75582 whole entry, looked up): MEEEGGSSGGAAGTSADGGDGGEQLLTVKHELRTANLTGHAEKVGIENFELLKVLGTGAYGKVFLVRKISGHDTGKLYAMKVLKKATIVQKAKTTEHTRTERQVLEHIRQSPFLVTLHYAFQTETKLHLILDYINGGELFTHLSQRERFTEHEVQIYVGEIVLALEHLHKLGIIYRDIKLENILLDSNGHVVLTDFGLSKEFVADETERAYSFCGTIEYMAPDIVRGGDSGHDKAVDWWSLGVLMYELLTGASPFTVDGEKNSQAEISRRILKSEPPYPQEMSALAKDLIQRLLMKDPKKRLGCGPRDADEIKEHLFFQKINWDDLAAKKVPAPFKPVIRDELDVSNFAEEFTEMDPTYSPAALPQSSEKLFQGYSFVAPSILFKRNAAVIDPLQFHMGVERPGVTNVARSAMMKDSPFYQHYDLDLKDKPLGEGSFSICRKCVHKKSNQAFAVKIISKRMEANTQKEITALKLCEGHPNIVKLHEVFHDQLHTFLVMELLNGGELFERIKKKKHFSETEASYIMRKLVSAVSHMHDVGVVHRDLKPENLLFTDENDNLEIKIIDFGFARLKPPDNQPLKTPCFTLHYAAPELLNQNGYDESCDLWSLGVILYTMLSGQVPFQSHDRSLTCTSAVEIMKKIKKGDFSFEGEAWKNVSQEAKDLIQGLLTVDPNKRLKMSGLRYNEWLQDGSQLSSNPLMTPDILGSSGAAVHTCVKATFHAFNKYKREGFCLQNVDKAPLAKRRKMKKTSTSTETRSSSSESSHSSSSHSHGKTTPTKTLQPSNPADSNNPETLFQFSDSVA

[43] = biological target: Serine/threonine-protein kinase TAO1 (Homo sapiens) (UniProt Q7L7X3); conditions: Compound concentration 1000.0 nM
Chain of Serine/threonine-protein kinase TAO1 (Homo sapiens) (Q7L7X3 whole entry): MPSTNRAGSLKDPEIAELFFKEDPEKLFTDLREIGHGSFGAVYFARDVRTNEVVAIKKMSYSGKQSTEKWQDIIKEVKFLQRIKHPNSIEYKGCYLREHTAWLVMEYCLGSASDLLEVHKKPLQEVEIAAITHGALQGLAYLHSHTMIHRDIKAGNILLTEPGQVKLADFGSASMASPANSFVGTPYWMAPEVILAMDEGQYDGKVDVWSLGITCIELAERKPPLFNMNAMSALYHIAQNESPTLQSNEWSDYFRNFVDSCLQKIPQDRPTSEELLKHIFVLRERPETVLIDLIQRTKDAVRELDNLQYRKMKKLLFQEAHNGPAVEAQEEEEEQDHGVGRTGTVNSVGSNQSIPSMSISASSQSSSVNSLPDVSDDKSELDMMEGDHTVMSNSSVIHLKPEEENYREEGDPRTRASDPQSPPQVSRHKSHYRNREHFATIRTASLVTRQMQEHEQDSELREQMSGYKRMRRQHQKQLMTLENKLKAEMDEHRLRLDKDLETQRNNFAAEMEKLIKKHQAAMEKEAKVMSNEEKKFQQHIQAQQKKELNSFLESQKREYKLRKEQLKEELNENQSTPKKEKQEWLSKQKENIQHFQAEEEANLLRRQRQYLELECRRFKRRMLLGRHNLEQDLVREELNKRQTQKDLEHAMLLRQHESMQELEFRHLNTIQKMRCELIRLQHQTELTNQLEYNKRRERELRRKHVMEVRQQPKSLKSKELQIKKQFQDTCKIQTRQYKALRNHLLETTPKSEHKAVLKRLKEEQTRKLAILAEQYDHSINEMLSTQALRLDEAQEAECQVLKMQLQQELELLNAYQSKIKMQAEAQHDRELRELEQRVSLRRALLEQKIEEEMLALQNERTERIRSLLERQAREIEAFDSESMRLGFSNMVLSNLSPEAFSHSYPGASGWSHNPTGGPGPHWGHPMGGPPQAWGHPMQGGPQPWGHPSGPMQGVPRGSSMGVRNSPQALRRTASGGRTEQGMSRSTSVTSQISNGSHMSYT

[44] = biological target: Serine/threonine-protein kinase OSR1 (Homo sapiens) (UniProt O95747); conditions: Compound concentration 1000.0 nM
[45] = biological target: Interleukin-1 receptor-associated kinase 3 (Homo sapiens) (UniProt Q9Y616); conditions: Compound concentration 1000.0 nM

Structure (SMILES): CCCCN(CCCC)C(=O)CN1C[C@@H](c2cc(OC)c3c(c2)OCO3)[C@H](C(=O)O)[C@H]1CC(C)(C)CCC [A-545]
- residual activity [1]: 100%
- residual activity [2]: 87.4%
- residual activity [3]: 100%
- residual activity [4]: 74.9%
- residual activity [5]: 94.4%
- inhibition [6]: 69.9%
- residual activity [7]: 95%
- residual activity [8]: 77.2%
- residual activity [9]: 100%
- residual activity [10]: 100%
- residual activity [11]: 83.2%
- residual activity [12]: 87.2%
- residual activity [13]: 100%
- residual activity [14]: 100%
- residual activity [15]: 88.6%
- residual activity [16]: 84.8%
- inhibition [17]: 30.5%
- residual activity [18]: 78.5%
- residual activity [19]: 100%
- residual activity [20]: 90.5%
- residual activity [21]: 84.7%
- residual activity [22]: 100%
- residual activity [23]: 100%
- residual activity [24]: 88.5%
- residual activity [25]: 84.6%
- inhibition [26]: 76%
- residual activity [27]: 95.9%
- residual activity [28]: 100%
- residual activity [29]: 75.2%
- residual activity [30]: 75.2%
- residual activity [31]: 100%
- residual activity [32]: 75.9%
- residual activity [33]: 87.2%
- residual activity [34]: 100%
- residual activity [35]: 100%
- residual activity [36]: 80.3%
- residual activity [37]: 100%
- residual activity [38]: 80.6%
- residual activity [39]: 90.8%
- inhibition [40]: 27.1%
- residual activity [41]: 80.2%
- residual activity [42]: 98.5%
- residual activity [43]: 97.4%
- residual activity [44]: 94%
- residual activity [45]: 85%

Structure (SMILES): CCCCN(CCCC)C(=O)CN1C[C@H](c2cc(OC)c3c(c2)OCO3)[C@@H](C(=O)O)[C@@H]1CC(C)(C)CCC [ABT-546]
- residual activity [1]: 100%
- residual activity [2]: 100%
- residual activity [3]: 85.8%
- residual activity [4]: 100%
- residual activity [5]: 100%
- inhibition [6]: -1.47%
- residual activity [7]: 100%
- residual activity [8]: 85.5%
- residual activity [9]: 100%
- residual activity [10]: 100%
- residual activity [11]: 100%
- residual activity [12]: 100%
- residual activity [13]: 57.4%
- residual activity [14]: 100%
- residual activity [15]: 68.5%
- residual activity [16]: 95.4%
- inhibition [17]: 17%
- residual activity [18]: 67.3%
- residual activity [19]: 100%
- residual activity [20]: 70%
- residual activity [21]: 85.5%
- residual activity [22]: 100%
- residual activity [23]: 100%
- residual activity [24]: 100%
- residual activity [25]: 100%
- inhibition [26]: -9.89%
- residual activity [27]: 100%
- residual activity [28]: 100%
- residual activity [29]: 100%
- residual activity [30]: 100%
- residual activity [31]: 100%
- residual activity [32]: 79.8%
- residual activity [33]: 100%
- residual activity [34]: 100%
- residual activity [35]: 65.8%
- residual activity [36]: 100%
- residual activity [37]: 96.1%
- residual activity [38]: 64.2%
- residual activity [39]: 76.9%
- inhibition [40]: 3.64%
- residual activity [41]: 0%
- residual activity [42]: 100%
- residual activity [43]: 55.6%
- residual activity [44]: 89.5%
- residual activity [45]: 100%
